Laboratory results as given in US20090209525A1, “ENABLING METHODS TO IDENTIFY ALLOSTERIC MODULATORS OF RECEPTOR ACTIVITY” (priority 2006, published 2009).
Positions count from the first letter of the chain named.

Assays:
rat M1 D105A receptor = target: T1, rat M1 D105A receptor (Rattus norvegicus, UniProt P08482, D105A); experiment: R-SAT functional assay, D105A mutant; format: cell-based; details: Table 3, maximum response
T1 construct: expressed in transfected cells; host or cells: NIH-3T3
T1 sequence (P08482 1-460 D105A): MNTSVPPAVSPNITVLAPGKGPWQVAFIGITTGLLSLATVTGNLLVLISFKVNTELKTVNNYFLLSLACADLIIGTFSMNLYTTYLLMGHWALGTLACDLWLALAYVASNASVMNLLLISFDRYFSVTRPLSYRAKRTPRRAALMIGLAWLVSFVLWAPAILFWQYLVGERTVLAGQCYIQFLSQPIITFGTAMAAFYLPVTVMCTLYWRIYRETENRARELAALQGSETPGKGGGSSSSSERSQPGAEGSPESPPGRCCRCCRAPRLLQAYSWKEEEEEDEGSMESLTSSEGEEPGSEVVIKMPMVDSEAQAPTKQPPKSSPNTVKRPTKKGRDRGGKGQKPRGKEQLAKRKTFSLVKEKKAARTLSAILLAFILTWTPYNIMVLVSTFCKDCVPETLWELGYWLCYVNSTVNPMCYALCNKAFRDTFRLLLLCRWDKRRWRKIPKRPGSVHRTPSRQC
Experimental: (§1) Cells are co-transfected for 18 h with DMEM containing 0.08 micrograms/ml of an expression vector for the expression of the mutant receptor and 0.3 micrograms/ml pSI-Bgal (Promega, Madison Wis.), and 0.5% v/v Polyfect (Qiagen, Valencia Calif.), as recommended by the manufacturer. On day three, the medium is replaced with DMEM containing 1% PSG, 0.5% calf serum, 2% cyto-sf3 (Kemp Biotechnologies, Frederick, Md.), and varying concentrations of the compounds to be tested. Cells are grown in a humidified atmosphere with 5% ambient CO2 for 5 days. The media is removed from the plates, and beta-galactosidase activity is measured by the addition of o-nitrophenyl -d-galactopyranoside in phosphate-buffered saline with 5% Nonidet P-40. […] The following equation is fitted to the data using GraphPad Prism software (San Diego, Calif.):
(§2) NIH-3T3 cells were grown in 96-well tissue culture plates to 70 to 80% confluence in Dulbecco's modified essential media (DMEM) supplemented with 100 units/ml penicillin, 100 micrograms/ml streptomycin, 0.3 mg/ml L-glutamine (1% PSG, GIBCO) and 10% calf serum (Sigma-Aldrich). Cells were transfected for 18 h with DMEM containing 0.08 micrograms/ml receptor DNA and 0.3 micrograms/ml pSI-Bgal (Promega, Madison Wis.), 0.5% v/v Polyfect (Qiagen, Valencia Calif.). Medium was replaced with DMEM containing 1% PSG, 0.5% calf serum, 2% cyto-sf3 (Kemp Biotechnologies, Frederick, Md.), and varying concentrations of ligand. […] Cells were grown in a humidified atmosphere with 5% ambient CO2 for 5 days. Medium was removed from the plates, and beta-galactosidase activity was measured by the addition of o-nitrophenyl -d-galactopyranoside in phosphate-buffered saline with 5% Nonidet P-40.

rat M1 W101A receptor = target: T2, rat M1 W101A receptor (Rattus norvegicus, UniProt P08482, W101A); experiment: ^3H-NMS radioligand binding, W101A; details: for Shift: Ki W101A divided by Ki wild-type; for increase in binding affinity relative to wild-type: radioligand binding, W101A
T2 construct: expressed in transfected cells
T2 sequence (P08482 1-460 W101A): T1 sequence (P08482 1-460 D105A) with W101A, A105D
Experimental: Briefly, cell homogenates are prepared from cells transiently or stably expressing wild type or mutant receptors. For transiently transfected cells, HEK cells are transfected with receptor of interest and cells harvested 48 hours post transfection. Cells expressing the receptor, stably or transiently, are harvested using phosphate buffered saline containing 5 mM EDTA, cells centrifuged at low speed and pellet re-suspended in binding buffer. Cell suspension is polytroned and centrifuged at 15,000×g. The pellet is resuspended in binding buffer and centrifugation repeated two more times. The washed cell homogenates are used for the competition binding assays. Competition binding assays are carried out in the presence of fixed amount of cell homogenate, fixed concentration of radioactively labeled orthosteric or allosteric ligand and varying concentrations of the cal under study using appropriate buffer. Incubations are carried out at room temperature for 2 hours. Incubations are terminated by filtration onto GF/B filters using Packard cell harvester followed by 3 washes with ice-cold buffer. Radioactivity retained on the filters is quantitated using Packard Top Count using Microscint 20 scintillation fluid. […] The membranes prepared above are incubated with a labeled ligand in 25 mM sodium phosphate, 5 mM magnesium chloride, 0.01% BSA two hours at room temperature. The binding reaction is stopped by rapid filtration onto GF/B filters. […] The pKd values (pKd=−log Kd) of the labeled ligand are calculated.
Radioligand binding assays were carried out in 25 mM sodium phosphate, 5 mM magnesium chloride, 0.01% BSA. Incubations were for two hours at room temperature, and reactions were stopped by rapid filtration onto GF/B filters.

rat M1 L102A receptor = target: T3, rat M1 L102A receptor (Rattus norvegicus, UniProt P08482, L102A); experiment: R-SAT functional assay, L102A mutant; format: cell-based; details: for Eff (%) / Shift / EC50: Table 3; for Eff (%): maximum response, normalized; for Shift: EC50 L102A divided by EC50 wild-type
T3 construct: expressed in transfected cells; host or cells: NIH-3T3
T3 sequence (P08482 1-460 L102A): T1 sequence (P08482 1-460 D105A) with L102A, A105D
Experimental: as §1, §2

Eff (%) (rat M1 D105A receptor) | IC50 (rat M1 W101A receptor) [nM] | Shift (rat M1 W101A receptor) | Eff (%) (rat M1 L102A receptor; L102A) | decrease in potency relative to wild-type (rat M1 L102A receptor; R-SAT, L102A) [fold] | Shift (rat M1 L102A receptor) | EC50 (rat M1 L102A receptor; L102A) [nM] | SMILES | increase in binding affinity relative to wild-type (rat M1 W101A receptor)
no resp. | 3.16 | 0.003 | 37 ± 7% | 30 | 30 | 501 | CCCCC1CCN(CCCN2C(=O)COc3cc(F)ccc32)CC1 [AC-260584, 4-[3-(4-Butyl-piperidin-1-yl)-propyl]-7-fluoro-4H-benzo [1,4]oxazin-3-one] | over 100 fold
no resp. | 126 | 1 | >35 ± — % |  | >100 | > 10000 | Clc1ccc2c(c1)N=C(N1CCNCC1)c1ccccc1N2 [NDMC, 8-chloro-11-(1-piperazinyl)-5H-dibenzo [b,e] [1,4] diazepine] | 

SMILES | Eff (%) (rat M1 D105A receptor) | IC50 (rat M1 W101A receptor) [nM] | Shift (rat M1 W101A receptor) | Eff (%) (rat M1 L102A receptor; L102A) | decrease in potency relative to wild-type (rat M1 L102A receptor; R-SAT, L102A) [fold] | Shift (rat M1 L102A receptor) | EC50 (rat M1 L102A receptor; L102A) [nM] | increase in binding affinity relative to wild-type (rat M1 W101A receptor)
CCCCC1CCN(CCCC(=O)c2ccccc2C)CC1 [AC-42, 4-n-butyl-1-[4-(2-methylphenyl)-4-oxo-1-butyl] piperidine hydrogen chloride] | no resp. | 50.1 | 0.01 | 6 ± 0% |  |  |  | 50 fold
